Among the data in patent US6762052B1, “DNA sequence encoding flavin-containing monooxygenase” (priority 1993, dated 2004) are Km and Vmax values, retold here.

The target in the assay is T1, lys158-HFMO3-MBP (Homo sapiens, UniProt P31513, E158K).
T1 sequence (P31513 2-532 E158K): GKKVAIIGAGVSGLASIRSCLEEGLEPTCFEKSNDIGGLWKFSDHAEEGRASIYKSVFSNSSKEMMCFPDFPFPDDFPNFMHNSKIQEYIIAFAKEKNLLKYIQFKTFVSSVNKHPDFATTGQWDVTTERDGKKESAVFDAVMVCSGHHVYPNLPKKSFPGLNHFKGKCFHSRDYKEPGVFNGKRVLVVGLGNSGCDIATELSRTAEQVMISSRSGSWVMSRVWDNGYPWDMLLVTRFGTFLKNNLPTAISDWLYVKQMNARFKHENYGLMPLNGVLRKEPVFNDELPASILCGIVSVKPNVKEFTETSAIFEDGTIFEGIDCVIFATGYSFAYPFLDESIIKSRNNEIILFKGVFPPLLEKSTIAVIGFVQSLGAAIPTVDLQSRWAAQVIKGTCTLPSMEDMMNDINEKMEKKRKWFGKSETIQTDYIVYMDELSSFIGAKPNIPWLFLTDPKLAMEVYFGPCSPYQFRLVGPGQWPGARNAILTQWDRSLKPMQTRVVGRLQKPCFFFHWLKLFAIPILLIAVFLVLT
The experiment in a line: Substrate oxygenation by lys158-HFMO3-MBP fusion protein, HPLC. The note with it: lys158-HFMO3-MBP, N-oxygenation. As to the method: For HFMO3-MBP assay, all HFMO3-MBP incubations were done as follows: Into a test tube was added DETAPAC (1.2 mM, final concentration for a 250 μl reaction) followed by the addition of 60 μl NADPH generating system (0.4 mM NADP, 0.4 mM glucose-6-phosphate, and 20 μl of a 50 units mI^−1 glucose-6-phosphate dehydrogenase). The tube was chilled on ice and buffer and enzyme were added as described below for individual experiments to give a volume of 240 μl. The incubation was initiated by the addition of 5-DTP (10 μl of 5 mM) and placed in a shaking water bath at 37° C. for 10 min (unless specified otherwise). The incubation was stopped by the addition of 1.0 ml of ice-cold CH2Cl2. Following the addition of sodium carbonate (approx. 20 mg), the culture tube was vortexed, centrifuged (2000×g, 10 min), and the organic layer was removed and transferred to a 1.5 ml microfuge tube. The organic solvent was evaporated under a stream of Ar(g) to dryness and the residue was taken up in MeOH (300 μl) for determination HPLC analysis.
Data was analyzed with a Hitachi D-2500 integrator.
MTS-oxygenation assays were carried out under the same buffer, temperature, time and volume conditions, as for the N-oxygenation assays. The reactions were initiated upon addition of 10 μl of a 5 mM solution of MTS. The reaction was quenched with the addition of 700 μl of 80% CH3CN:20% hexane then 20 mg NaCl(s) and vortexed vigorously for 10 sec. The quenched reactions were then centrifuged briefly to separate the phases. The organic layer, containing product and substrate, was removed and used directly for HPLC analysis.
All other instruments used were the same as above for the N-oxygenation reactions. Conditions for elution were 50% CH3CN/H2O (v:v) with a flow rate gradient as follows: 1.5 ml min^−1 from 0 to 4 min., 1.5-2.5 ml min^−1 from 4 to 5 min, 2.5 ml min^−1 from 5 to 15 min.
Trimethylamine is commonly ingested in foodstuffs or it is available in the diet of humans from choline and other sources. Trimethylamine (TMA) is exclusively eliminated in humans by metabolism to trimethylamine N-oxide (TMANO). […] Thus, urinary TMANO formation provides a simple, reliable and direct assay of FMO3 activity in adult humans. Analysis of TMA to TMANO ratios provides a direct means of phenotyping adult humans for FMO3 activity. Phenotyping FMO3 activity in humans would provide a simple means of evaluating the relationship between the presence of FMO3 and various disease conditions. […]

`CN(C)CCCCCN1c2ccccc2Sc2ccc(C(F)(F)F)cc21` [Compound 5]: the Michaelis-Menten constant (Km) was found to be 78 µM. Also, the Vmax (Lineweaver-Burke analysis) is recorded as 1.88 nmole/min/nmol of flavin.

Usually Km stands for the substrate concentration at which the rate is half of its maximum.
